From PubChem BioAssay AID330 (DTP/NCI, 2004)
“And” between values parts separate entries of the source, which are not always exact repeats. Equal values may be shown once. Inconclusive results and toxic doses are left out.

Test system: P388 leukemia ip, CD2F1 mice, survival T/C
Assay: NCI In Vivo Anticancer Drug Screen. Data for tumor model P388 Leukemia (intraperitoneal) in CD2F1 (CDF1) mice
Details: endpoint: median survival time, higher = longer survival
Summary of the method: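 Mice carrying the transplanted tumor received test compound or vehicle. Survival was recorded in each group, and the value is the treated-group measurement divided by that of the vehicle-treated control group.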

[1] = dose: 200.0 mg/kg/injection, schedule: Q01DX009 (ip), vehicle: saline with Tween-80
[2] = dose: 50.0 mg/kg/injection, schedule: Q01DX005 (ip), vehicle: saline with Tween-80
[3] = dose: 100.0 mg/kg/injection, schedule: Q01DX005 (ip), vehicle: saline with Tween-80
[4] = dose: 200.0 mg/kg/injection, schedule: Q01DX005 (ip), vehicle: saline with Tween-80
[5] = dose: 50.0 mg/kg/injection, schedule: Q01DX009 (ip), vehicle: saline with Tween-80
[6] = dose: 100.0 mg/kg/injection, schedule: Q01DX009 (ip), vehicle: saline with Tween-80
[7] = dose: 50.0 mg/kg/injection, schedule: Q01DX009 (ip), vehicle: Klucel (hydroxypropylcellulose) (HPC)
[8] = dose: 100.0 mg/kg/injection, schedule: Q01DX009 (ip), vehicle: Klucel (hydroxypropylcellulose) (HPC)
[9] = dose: 200.0 mg/kg/injection, schedule: Q01DX009 (ip), vehicle: Klucel (hydroxypropylcellulose) (HPC)
[10] = dose: 50.0 mg/kg/injection, schedule: Q01DX009 (ip), vehicle: saline

Cc1ccc(S(=O)(=O)OCCN(CCOS(=O)(=O)c2ccc(C)cc2)c2ccc(C=O)cc2)cc1
T/C (dose: 0.78 mg/kg/injection, schedule: Q04DX003 (ip), vehicle: saline with Tween-80): 100 % of control
T/C (dose: 1.56 mg/kg/injection, schedule: Q04DX003 (ip), vehicle: saline with Tween-80): 113 % of control
T/C (dose: 3.13 mg/kg/injection, schedule: Q04DX003 (ip), vehicle: saline with Tween-80): 100 % of control
T/C (dose: 12.5 mg/kg/injection, schedule: Q04DX003 (ip), vehicle: saline with Tween-80): 154 % of control
T/C (dose: 25.0 mg/kg/injection, schedule: Q04DX003 (ip), vehicle: saline with Tween-80): 159 % of control
T/C (dose: 66.0 mg/kg/injection, schedule: Q04DX003 (ip), vehicle: saline with Tween-80): 158 % of control
T/C (dose: 100.0 mg/kg/injection, schedule: Q04DX003 (ip), vehicle: saline with Tween-80): 170 % of control and 172 % of control and 187 % of control
T/C (dose: 150.0 mg/kg/injection, schedule: Q04DX003 (ip), vehicle: saline with Tween-80): 183 % of control
T/C [1]: 95 % of control
T/C (dose: 200.0 mg/kg/injection, schedule: Q04DX003 (ip), vehicle: saline with Tween-80): 162 % of control

CCC(C)C(NC=O)C(=O)O (stereo unspecified)
T/C [2]: 93 % of control
T/C [3]: 100 % of control
T/C [4]: 100 % of control

CC1(C)CC(C)(C)C2(OC3=C([Se]2)C(C)(C)CC(C)(C)C3=O)C(=O)C1=O (stereo unspecified)
T/C [5]: 100 % of control
T/C [6]: 118 % of control
T/C [1]: 117 % of control

CCNC(=O)CCC(NS(=O)(=O)c1ccccc1)C(=O)O (stereo unspecified)
T/C (dose: 100.0 mg/kg/injection, schedule: Q04DX002 (ip), vehicle: Klucel (hydroxypropylcellulose) (HPC)): 103 % of control
T/C (dose: 200.0 mg/kg/injection, schedule: Q04DX002 (ip), vehicle: Klucel (hydroxypropylcellulose) (HPC)): 97 % of control
T/C (dose: 400.0 mg/kg/injection, schedule: Q04DX002 (ip), vehicle: Klucel (hydroxypropylcellulose) (HPC)): 96 % of control

C1CN2CCN3CCCN(CCN(C1)C2)C3
T/C (dose: 12.5 mg/kg/injection, schedule: Q01DX005 (ip), vehicle: saline): 102 % of control
T/C (dose: 25.0 mg/kg/injection, schedule: Q01DX005 (ip), vehicle: saline): 107 % of control
T/C [2]: 101 % of control

COC(=O)/C(C#N)=C/N(C)c1ccc([N+](=O)[O-])cc1
T/C [5]: 100 % of control
T/C [6]: 104 % of control
T/C [1]: 92 % of control

Cn1c(=O)c2c(nc(NCC[N+](C)(C)Cc3ccc(Cl)cc3)n2C)n(C)c1=O
T/C (dose: 6.25 mg/kg/injection, schedule: Q01DX009 (ip), vehicle: Klucel (hydroxypropylcellulose) (HPC)): 93 % of control
T/C (dose: 12.5 mg/kg/injection, schedule: Q01DX009 (ip), vehicle: Klucel (hydroxypropylcellulose) (HPC)): 101 % of control
T/C (dose: 25.0 mg/kg/injection, schedule: Q01DX009 (ip), vehicle: Klucel (hydroxypropylcellulose) (HPC)): 113 % of control and 94 % of control

CC(=O)N1CCC23c4ccccc4N(C)C2CC(=O)CC13 (stereo unspecified)
T/C (dose: 8.75 mg/kg/injection, schedule: Q01DX005 (ip), vehicle: Klucel (hydroxypropylcellulose) (HPC)): 97 % of control
T/C (dose: 17.5 mg/kg/injection, schedule: Q01DX005 (ip), vehicle: Klucel (hydroxypropylcellulose) (HPC)): 98 % of control
T/C (dose: 35.0 mg/kg/injection, schedule: Q01DX005 (ip), vehicle: Klucel (hydroxypropylcellulose) (HPC)): 103 % of control

S=C(N/N=C/c1ccc(Cl)s1)NC12CC3CC(CC(C3)C1)C2
T/C (dose: 30.0 mg/kg/injection, schedule: Q01DX005 (ip), vehicle: Klucel (hydroxypropylcellulose) (HPC)): 87 % of control
T/C (dose: 60.0 mg/kg/injection, schedule: Q01DX005 (ip), vehicle: Klucel (hydroxypropylcellulose) (HPC)): 93 % of control
T/C (dose: 120.0 mg/kg/injection, schedule: Q01DX005 (ip), vehicle: Klucel (hydroxypropylcellulose) (HPC)): 102 % of control
T/C (dose: 240.0 mg/kg/injection, schedule: Q01DX005 (ip), vehicle: Klucel (hydroxypropylcellulose) (HPC)): 100 % of control

CCOC1C(=O)C=COC1C(C)C (stereo unspecified)
T/C (dose: 60.0 mg/kg/injection, schedule: Q01DX005 (ip), vehicle: saline): 108 % of control
T/C (dose: 120.0 mg/kg/injection, schedule: Q01DX005 (ip), vehicle: saline): 104 % of control
T/C (dose: 240.0 mg/kg/injection, schedule: Q01DX005 (ip), vehicle: saline): 110 % of control

ClC(Cl)CN(Cc1ccccc1)c1ncc[nH]1
T/C (dose: 6.25 mg/kg/injection, schedule: Q01DX001 (ip), vehicle: saline): 105 % of control
T/C (dose: 12.5 mg/kg/injection, schedule: Q01DX001 (ip), vehicle: saline): 104 % of control
T/C (dose: 25.0 mg/kg/injection, schedule: Q01DX001 (ip), vehicle: saline): 105 % of control

CCOC(=O)/C(C#N)=C/N1CCCC1
T/C (dose: 6.25 mg/kg/injection, schedule: Q01DX005 (ip), vehicle: saline with Tween-80): 107 % of control
T/C (dose: 12.5 mg/kg/injection, schedule: Q01DX005 (ip), vehicle: saline with Tween-80): 96 % of control
T/C (dose: 25.0 mg/kg/injection, schedule: Q01DX005 (ip), vehicle: saline with Tween-80): 104 % of control

CCOC(=O)Nc1ccc2nc(N3CCCCCC3)sc2c1
T/C [5]: 101 % of control
T/C [6]: 100 % of control
T/C [1]: 102 % of control

O=S1(=O)C=C(Cl)C2C3CC(C(Cl)C3Cl)C21 (stereo unspecified)
T/C (dose: 15.0 mg/kg/injection, schedule: Q04DX003 (ip), vehicle: saline): 100 % of control
T/C (dose: 30.0 mg/kg/injection, schedule: Q04DX003 (ip), vehicle: saline): 91 % of control

NCCNc1ncnc2ccc(Cl)cc12
T/C [2]: 97 % of control
T/C [3]: 93 % of control
T/C [4]: 92 % of control

O=C(/C=C/c1ccc(O)c(O)c1)NCC(=O)NC(Cc1ccccc1)C(=O)O (stereo unspecified)
T/C [2]: 99 % of control
T/C [3]: 100 % of control
T/C [4]: 103 % of control

c1ccc2c(c1)cnc1c3ccccc3nn21
T/C [7]: 102 % of control
T/C [8]: 96 % of control
T/C [9]: 103 % of control

COc1ccc2c(c1OC)C(O)(Cc1ccccc1)OC2C1c2c(cc3c(c2OC)OCO3)CCN1C (stereo unspecified)
T/C (dose: 50.0 mg/kg/injection, schedule: Q01DX005 (ip), vehicle: Klucel (hydroxypropylcellulose) (HPC)): 106 % of control
T/C (dose: 100.0 mg/kg/injection, schedule: Q01DX005 (ip), vehicle: Klucel (hydroxypropylcellulose) (HPC)): 104 % of control
T/C (dose: 200.0 mg/kg/injection, schedule: Q01DX005 (ip), vehicle: Klucel (hydroxypropylcellulose) (HPC)): 95 % of control

O=C(C[N+]12CN3CN(CN(C3)C1)C2)c1ccc(Cl)cc1
T/C (dose: 66.0 mg/kg/injection, schedule: Q04DX003 (ip), vehicle: saline sonified): 104 % of control
T/C (dose: 100.0 mg/kg/injection, schedule: Q04DX003 (ip), vehicle: saline sonified): 122 % of control
T/C (dose: 150.0 mg/kg/injection, schedule: Q04DX003 (ip), vehicle: saline sonified): 118 % of control

OCC(O)C(O)C(O)/C=N\Nc1ccccc1 (stereo unspecified)
T/C [10]: 100 % of control
T/C (dose: 100.0 mg/kg/injection, schedule: Q01DX009 (ip), vehicle: saline): 114 % of control

CNC(C#N)C(O)c1ccccc1 (stereo unspecified)
T/C (dose: 12.5 mg/kg/injection, schedule: Q01DX009 (ip), vehicle: saline): 92 % of control
T/C (dose: 25.0 mg/kg/injection, schedule: Q01DX009 (ip), vehicle: saline): 92 % of control
T/C [10]: 93 % of control and 97 % of control

COc1cc([N+](=O)[O-])cc2cc(C)c(=O)oc12
T/C [5]: 99 % of control
T/C [6]: 91 % of control
T/C [1]: 91 % of control

CCCCCCCC(=O)Nc1ccc(CC)cc1
T/C (dose: 100.0 mg/kg/injection, schedule: Q04DX003 (ip), vehicle: other): 109 % of control
T/C (dose: 200.0 mg/kg/injection, schedule: Q04DX003 (ip), vehicle: other): 90 % of control
T/C (dose: 400.0 mg/kg/injection, schedule: Q04DX003 (ip), vehicle: other): 118 % of control

Oc1c(Cl)c(Cl)c2ncccc2c1Cl
T/C [2]: 102 % of control
T/C [3]: 107 % of control
T/C [4]: 110 % of control

CCC1(O)CN2CCc3c([nH]c4ccccc34)C(C(=O)OC)(c3cc4c(cc3OC)N(C)C3C(O)(C(=O)OC)C(OC(C)=O)C5(CC)C=CCN6CCC43C65)CC(C2=O)C1O (stereo unspecified)
T/C (dose: 25.0 mg/kg/injection, schedule: Q01DX001 (ip), vehicle: distilled water + Tween-80): 107 % of control
T/C (dose: 25.0 mg/kg/injection, schedule: Q01DX001 (ip), vehicle: suspension in saline): 104 % of control
T/C (dose: 50.0 mg/kg/injection, schedule: Q01DX001 (ip), vehicle: suspension in saline): 110 % of control
T/C (dose: 100.0 mg/kg/injection, schedule: Q01DX001 (ip), vehicle: suspension in saline): 120 % of control
T/C (dose: 200.0 mg/kg/injection, schedule: Q01DX001 (ip), vehicle: distilled water + Tween-80): 154 % of control

CCn1c2ccccc2c2cc(N)c(N=Nc3ccc([N+](=O)[O-])cc3)cc21
T/C [7]: 105 % of control
T/C [8]: 104 % of control
T/C [9]: 105 % of control
